According to ChEMBL document CHEMBL1151900, “Steroidal bivalent ligands for the estrogen receptor: design, synthesis, characterization and binding affinities” (Bioorg Med Chem, 2009):

What was measured:
[1] = target: T1, Estrogen receptor (Homo sapiens) (UniProt P03372); assay: Displacement of [3H]estradiol from full-length human estrogen receptor alpha by radiometric assay relative to estradiol
T1 sequence (whole entry): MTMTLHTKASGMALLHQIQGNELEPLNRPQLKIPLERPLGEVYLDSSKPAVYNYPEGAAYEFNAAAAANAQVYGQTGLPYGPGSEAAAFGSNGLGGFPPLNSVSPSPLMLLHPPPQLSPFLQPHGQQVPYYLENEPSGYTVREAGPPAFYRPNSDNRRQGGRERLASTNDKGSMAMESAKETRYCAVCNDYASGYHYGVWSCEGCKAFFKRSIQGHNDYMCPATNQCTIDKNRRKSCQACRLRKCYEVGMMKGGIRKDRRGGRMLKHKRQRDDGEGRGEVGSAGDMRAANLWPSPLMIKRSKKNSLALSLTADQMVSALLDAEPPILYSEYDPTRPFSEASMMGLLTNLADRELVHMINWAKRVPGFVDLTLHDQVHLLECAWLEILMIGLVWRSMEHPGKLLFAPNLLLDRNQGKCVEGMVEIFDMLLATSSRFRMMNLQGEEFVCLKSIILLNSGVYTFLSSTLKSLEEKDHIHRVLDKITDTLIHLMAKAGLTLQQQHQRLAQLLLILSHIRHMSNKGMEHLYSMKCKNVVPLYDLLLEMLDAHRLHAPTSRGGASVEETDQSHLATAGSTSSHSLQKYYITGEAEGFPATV

[2] = target: Estrogen receptor beta (Homo sapiens) (UniProt Q92731); assay: Displacement of [3H]estradiol from full-length human estrogen receptor beta by radiometric assay relative to estradiol
Sequence of Estrogen receptor beta (Homo sapiens) (Q92731 whole entry): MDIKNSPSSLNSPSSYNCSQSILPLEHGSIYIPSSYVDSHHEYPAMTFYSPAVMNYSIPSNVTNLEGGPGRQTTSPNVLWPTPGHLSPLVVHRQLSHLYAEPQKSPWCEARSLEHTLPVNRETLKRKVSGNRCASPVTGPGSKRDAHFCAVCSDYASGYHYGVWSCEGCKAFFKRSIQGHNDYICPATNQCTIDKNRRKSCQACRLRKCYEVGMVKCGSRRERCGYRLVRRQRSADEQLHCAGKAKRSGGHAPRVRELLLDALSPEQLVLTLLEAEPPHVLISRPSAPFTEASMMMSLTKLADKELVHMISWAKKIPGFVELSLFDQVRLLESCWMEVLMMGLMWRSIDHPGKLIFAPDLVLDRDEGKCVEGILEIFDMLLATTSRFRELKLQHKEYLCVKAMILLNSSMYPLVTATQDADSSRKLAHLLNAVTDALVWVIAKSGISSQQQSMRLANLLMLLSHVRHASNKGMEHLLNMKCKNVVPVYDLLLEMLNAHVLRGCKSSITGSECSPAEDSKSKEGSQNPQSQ

| SMILES | RBA [1] [%] | RBA [2] [%] |
| --- | --- | --- |
| C[C@]12CC[C@@H]3c4ccc(O)cc4CC[C@H]3[C@@H]1CC[C@@]2(O)C#Cc1ccc(OCCCCOCCCCOCCCCOCCCCOCCCOc2ccc(C#C[C@]3(O)CC[C@H]4[C@@H]5CCc6cc(O)ccc6[C@H]5CC[C@@]43C)cc2)cc1 | 1.6 | 0.22 |
| C[C@]12CC[C@@H]3c4ccc(O)cc4CC[C@H]3[C@@H]1CC[C@@]2(O)C#Cc1ccc(OCCCOCCCOCCCOCCCOc2ccc(C#C[C@]3(O)CC[C@H]4[C@@H]5CCc6cc(O)ccc6[C@H]5CC[C@@]43C)cc2)cc1 | 6.9 | 0.003 |
| C[C@]12CC[C@@H]3c4ccc(O)cc4CC[C@H]3[C@@H]1CC[C@@]2(O)C#Cc1ccc(OCCCCOCCCCOCCCCOc2ccc(C#C[C@]3(O)CC[C@H]4[C@@H]5CCc6cc(O)ccc6[C@H]5CC[C@@]43C)cc2)cc1 | 4.5 | 1.5 |
| C[C@]12CC[C@@H]3c4ccc(O)cc4CC[C@H]3[C@@H]1CC[C@@]2(O)C#Cc1ccc(CNCCOCCOCCOCCOCCOCCNCc2ccc(C#C[C@]3(O)CC[C@H]4[C@@H]5CCc6cc(O)ccc6[C@H]5CC[C@@]43C)cc2)cc1 | 6.8 | 3.6 |
| C[C@]12CC[C@@H]3c4ccc(O)cc4CC[C@H]3[C@@H]1CC[C@@]2(O)C#Cc1ccc(OCCCOCCCOCCCOCCCOCCCOc2ccc(C#C[C@]3(O)CC[C@H]4[C@@H]5CCc6cc(O)ccc6[C@H]5CC[C@@]43C)cc2)cc1 | 2.3 | 0.69 |
| C[C@]12CC[C@@H]3c4ccc(O)cc4CC[C@H]3[C@@H]1CC[C@@]2(O)C#Cc1ccc(OCCOCCOCCOCCOCCOCCOc2ccc(C#C[C@]3(O)CC[C@H]4[C@@H]5CCc6cc(O)ccc6[C@H]5CC[C@@]43C)cc2)cc1 | 1.2 | 0.68 |
| C[C@]12CC[C@@H]3c4ccc(O)cc4CC[C@H]3[C@@H]1CC[C@@]2(O)C#Cc1ccc(OCCCCOCCCCOCCCCOCCCCOc2ccc(C#C[C@]3(O)CC[C@H]4[C@@H]5CCc6cc(O)ccc6[C@H]5CC[C@@]43C)cc2)cc1 | 2.6 | 0.76 |
| C[C@]12CC[C@@H]3c4ccc(O)cc4CC[C@H]3[C@@H]1CC[C@@]2(O)C#Cc1ccc(OCCCOCCCOCCCOCCCOCCCOCCCOc2ccc(C#C[C@]3(O)CC[C@H]4[C@@H]5CCc6cc(O)ccc6[C@H]5CC[C@@]43C)cc2)cc1 | 1.5 | 0.38 |

The remaining lines, values ahead:

| RBA [1] [%] | RBA [2] [%] | SMILES |
| --- | --- | --- |
| 2.1 | 0.53 | C[C@]12CC[C@@H]3c4ccc(O)cc4CC[C@H]3[C@@H]1CC[C@@]2(O)C#Cc1ccc(OCCCOCCCOCCCOc2ccc(C#C[C@]3(O)CC[C@H]4[C@@H]5CCc6cc(O)ccc6[C@H]5CC[C@@]43C)cc2)cc1 |
| 1.8 | 0.82 | C[C@]12CC[C@@H]3c4ccc(O)cc4CC[C@H]3[C@@H]1CC[C@@]2(O)C#Cc1ccc(OCCCCOCCCCOc2ccc(C#C[C@]3(O)CC[C@H]4[C@@H]5CCc6cc(O)ccc6[C@H]5CC[C@@]43C)cc2)cc1 |
| 0.9 | 0.38 | C[C@]12CC[C@@H]3c4ccc(O)cc4CC[C@H]3[C@@H]1CC[C@@]2(O)C#Cc1ccc(OCCCOCCCOc2ccc(C#C[C@]3(O)CC[C@H]4[C@@H]5CCc6cc(O)ccc6[C@H]5CC[C@@]43C)cc2)cc1 |
